Measurements reported in the OligoGym collection.
Oligonucleotides are written 5' to 3', each unit as a sugar letter and its base; * is a phosphorothioate linkage, no mark a phosphodiester; rarer units and linkages stand in square brackets, end groups in braces. Plain capitals give the bases only. Oligonucleotides are given in HELM: sugar(base)linkage, 5' to 3'; d 2'-deoxyribose, r ribose, m 2'-O-methylribose, p phosphate. ss, as = sense and antisense strand; d = 2'-deoxy (DNA); r = 2'-OH (RNA)

The substances below were run against UBE2G1 (assay: reporter assay of Huesken 2005). Settings: siRNA.
Note: test concentration or dose not given here.

Substance	normalised inhibition (eCFP-eYFP dual reporter) [%]
sense rArArArArGrCrCrArGrArGrGrArArCrGrCrUrGdTdT / antisense rCrArGrCrGrUrUrCrCrUrCrUrGrGrCrUrUrUrUdCdA	32.6
sense rArArArCrCrArUrCrArUrGrArUrUrArGrUrGrUdTdT / antisense rArCrArCrUrArArUrCrArUrGrArUrGrGrUrUrUdCdC	66.9
sense rArArArGrUrUrGrCrCrCrGrCrUrGrUrGrUrArAdTdT / antisense rUrUrArCrArCrArGrCrGrGrGrCrArArCrUrUrUdTdC	93.9
sense rArArCrCrArUrCrArUrGrArUrUrArGrUrGrUrCdTdT / antisense rGrArCrArCrUrArArUrCrArUrGrArUrGrGrUrUdTdC	65.4
sense rArArGrCrCrArGrArGrGrArArCrGrCrUrGrGrCdTdT / antisense rGrCrCrArGrCrGrUrUrCrCrUrCrUrGrGrCrUrUdTdT	35.9
sense rArArGrUrUrGrCrCrCrGrCrUrGrUrGrUrArArGdTdT / antisense rCrUrUrArCrArCrArGrCrGrGrGrCrArArCrUrUdTdT	79
sense rArArUrCrUrGrGrCrArCrCrCrArArArUrGrUrUdTdT / antisense rArArCrArUrUrUrGrGrGrUrGrCrCrArGrArUrUdTdC	73.4
sense rArArUrGrGrArGrGrGrArArGrArUrArGrArArAdTdT / antisense rUrUrUrCrUrArUrCrUrUrCrCrCrUrCrCrArUrUdCdT	85.9
sense rArArUrGrUrUrGrArUrGrCrUrGrCrGrArArArGdTdT / antisense rCrUrUrUrCrGrCrArGrCrArUrCrArArCrArUrUdAdG	93.5

Each substance was assayed against UBE2N (assay: reporter assay of Huesken 2005). Settings: siRNA.

Substance	normalised inhibition (eCFP-eYFP dual reporter) [%]
RNA1{r(U)p.r(A)p.r(G)p.r(A)p.r(U)p.r(A)p.r(U)p.r(U)p.r(U)p.r(U)p.r(G)p.r(A)p.r(A)p.r(A)p.r(G)p.r(A)p.r(U)p.r(A)p.r(A)p.d(T)p.d(T)}|RNA2{r(U)p.r(U)p.r(A)p.r(U)p.r(C)p.r(U)p.r(U)p.r(U)p.r(C)p.r(A)p.r(A)p.r(A)p.r(A)p.r(U)p.r(A)p.r(U)p.r(C)p.r(U)p.r(A)p.d(G)p.d(A)}$$$RNA1{StrandType:ss}|RNA2{StrandType:as}$	80.6
RNA1{r(U)p.r(A)p.r(G)p.r(C)p.r(G)p.r(G)p.r(A)p.r(G)p.r(C)p.r(A)p.r(G)p.r(U)p.r(G)p.r(G)p.r(A)p.r(A)p.r(G)p.r(A)p.r(C)p.d(T)p.d(T)}|RNA2{r(G)p.r(U)p.r(C)p.r(U)p.r(U)p.r(C)p.r(C)p.r(A)p.r(C)p.r(U)p.r(G)p.r(C)p.r(U)p.r(C)p.r(C)p.r(G)p.r(C)p.r(U)p.r(A)p.d(C)p.d(A)}$$$RNA1{StrandType:ss}|RNA2{StrandType:as}$	40.2
RNA1{r(U)p.r(A)p.r(U)p.r(U)p.r(C)p.r(C)p.r(U)p.r(U)p.r(C)p.r(C)p.r(A)p.r(G)p.r(A)p.r(A)p.r(G)p.r(A)p.r(A)p.r(U)p.r(A)p.d(T)p.d(T)}|RNA2{r(U)p.r(A)p.r(U)p.r(U)p.r(C)p.r(U)p.r(U)p.r(C)p.r(U)p.r(G)p.r(G)p.r(A)p.r(A)p.r(G)p.r(G)p.r(A)p.r(A)p.r(U)p.r(A)p.d(G)p.d(T)}$$$RNA1{StrandType:ss}|RNA2{StrandType:as}$	83
RNA1{r(U)p.r(C)p.r(A)p.r(U)p.r(G)p.r(U)p.r(G)p.r(G)p.r(U)p.r(C)p.r(A)p.r(U)p.r(U)p.r(G)p.r(C)p.r(U)p.r(G)p.r(G)p.r(C)p.d(T)p.d(T)}|RNA2{r(G)p.r(C)p.r(C)p.r(A)p.r(G)p.r(C)p.r(A)p.r(A)p.r(U)p.r(G)p.r(A)p.r(C)p.r(C)p.r(A)p.r(C)p.r(A)p.r(U)p.r(G)p.r(A)p.d(A)p.d(A)}$$$RNA1{StrandType:ss}|RNA2{StrandType:as}$	50.6
RNA1{r(U)p.r(C)p.r(C)p.r(A)p.r(G)p.r(A)p.r(U)p.r(G)p.r(A)p.r(U)p.r(C)p.r(C)p.r(A)p.r(U)p.r(U)p.r(A)p.r(G)p.r(C)p.r(A)p.d(T)p.d(T)}|RNA2{r(U)p.r(G)p.r(C)p.r(U)p.r(A)p.r(A)p.r(U)p.r(G)p.r(G)p.r(A)p.r(U)p.r(C)p.r(A)p.r(U)p.r(C)p.r(U)p.r(G)p.r(G)p.r(A)p.d(T)p.d(T)}$$$RNA1{StrandType:ss}|RNA2{StrandType:as}$	85.9
RNA1{r(U)p.r(C)p.r(C)p.r(C)p.r(A)p.r(A)p.r(U)p.r(C)p.r(C)p.r(A)p.r(G)p.r(A)p.r(U)p.r(G)p.r(A)p.r(U)p.r(C)p.r(C)p.r(A)p.d(T)p.d(T)}|RNA2{r(U)p.r(G)p.r(G)p.r(A)p.r(U)p.r(C)p.r(A)p.r(U)p.r(C)p.r(U)p.r(G)p.r(G)p.r(A)p.r(U)p.r(U)p.r(G)p.r(G)p.r(G)p.r(A)p.d(G)p.d(C)}$$$RNA1{StrandType:ss}|RNA2{StrandType:as}$	78.4
RNA1{r(U)p.r(C)p.r(C)p.r(G)p.r(C)p.r(A)p.r(C)p.r(A)p.r(G)p.r(U)p.r(U)p.r(C)p.r(U)p.r(G)p.r(C)p.r(U)p.r(A)p.r(U)p.r(C)p.d(T)p.d(T)}|RNA2{r(G)p.r(A)p.r(U)p.r(A)p.r(G)p.r(C)p.r(A)p.r(G)p.r(A)p.r(A)p.r(C)p.r(U)p.r(G)p.r(U)p.r(G)p.r(C)p.r(G)p.r(G)p.r(A)p.d(T)p.d(C)}$$$RNA1{StrandType:ss}|RNA2{StrandType:as}$	63.5
RNA1{r(U)p.r(C)p.r(C)p.r(U)p.r(U)p.r(C)p.r(C)p.r(A)p.r(G)p.r(A)p.r(A)p.r(G)p.r(A)p.r(A)p.r(U)p.r(A)p.r(C)p.r(C)p.r(C)p.d(T)p.d(T)}|RNA2{r(G)p.r(G)p.r(G)p.r(U)p.r(A)p.r(U)p.r(U)p.r(C)p.r(U)p.r(U)p.r(C)p.r(U)p.r(G)p.r(G)p.r(A)p.r(A)p.r(G)p.r(G)p.r(A)p.d(A)p.d(T)}$$$RNA1{StrandType:ss}|RNA2{StrandType:as}$	36.9
RNA1{r(U)p.r(G)p.r(A)p.r(A)p.r(A)p.r(G)p.r(A)p.r(U)p.r(A)p.r(A)p.r(G)p.r(U)p.r(G)p.r(G)p.r(U)p.r(C)p.r(C)p.r(C)p.r(C)p.d(T)p.d(T)}|RNA2{r(G)p.r(G)p.r(G)p.r(G)p.r(A)p.r(C)p.r(C)p.r(A)p.r(C)p.r(U)p.r(U)p.r(A)p.r(U)p.r(C)p.r(U)p.r(U)p.r(U)p.r(C)p.r(A)p.d(A)p.d(A)}$$$RNA1{StrandType:ss}|RNA2{StrandType:as}$	34.5
RNA1{r(U)p.r(G)p.r(A)p.r(U)p.r(C)p.r(C)p.r(A)p.r(U)p.r(U)p.r(A)p.r(G)p.r(C)p.r(A)p.r(A)p.r(A)p.r(U)p.r(G)p.r(A)p.r(U)p.d(T)p.d(T)}|RNA2{r(A)p.r(U)p.r(C)p.r(A)p.r(U)p.r(U)p.r(U)p.r(G)p.r(C)p.r(U)p.r(A)p.r(A)p.r(U)p.r(G)p.r(G)p.r(A)p.r(U)p.r(C)p.r(A)p.d(T)p.d(C)}$$$RNA1{StrandType:ss}|RNA2{StrandType:as}$	70.2
RNA1{r(U)p.r(G)p.r(G)p.r(C)p.r(A)p.r(U)p.r(C)p.r(A)p.r(A)p.r(A)p.r(G)p.r(C)p.r(C)p.r(G)p.r(A)p.r(A)p.r(C)p.r(C)p.r(A)p.d(T)p.d(T)}|RNA2{r(U)p.r(G)p.r(G)p.r(U)p.r(U)p.r(C)p.r(G)p.r(G)p.r(C)p.r(U)p.r(U)p.r(U)p.r(G)p.r(A)p.r(U)p.r(G)p.r(C)p.r(C)p.r(A)p.d(G)p.d(G)}$$$RNA1{StrandType:ss}|RNA2{StrandType:as}$	81.6
RNA1{r(U)p.r(U)p.r(C)p.r(A)p.r(U)p.r(G)p.r(U)p.r(G)p.r(G)p.r(U)p.r(C)p.r(A)p.r(U)p.r(U)p.r(G)p.r(C)p.r(U)p.r(G)p.r(G)p.d(T)p.d(T)}|RNA2{r(C)p.r(C)p.r(A)p.r(G)p.r(C)p.r(A)p.r(A)p.r(U)p.r(G)p.r(A)p.r(C)p.r(C)p.r(A)p.r(C)p.r(A)p.r(U)p.r(G)p.r(A)p.r(A)p.d(A)p.d(A)}$$$RNA1{StrandType:ss}|RNA2{StrandType:as}$	39.5
RNA1{r(U)p.r(U)p.r(G)p.r(C)p.r(U)p.r(G)p.r(G)p.r(C)p.r(C)p.r(C)p.r(U)p.r(C)p.r(A)p.r(G)p.r(G)p.r(A)p.r(U)p.r(U)p.r(C)p.d(T)p.d(T)}|RNA2{r(G)p.r(A)p.r(A)p.r(U)p.r(C)p.r(C)p.r(U)p.r(G)p.r(A)p.r(G)p.r(G)p.r(G)p.r(C)p.r(C)p.r(A)p.r(G)p.r(C)p.r(A)p.r(A)p.d(T)p.d(G)}$$$RNA1{StrandType:ss}|RNA2{StrandType:as}$	50.2
RNA1{r(U)p.r(U)p.r(G)p.r(G)p.r(G)p.r(A)p.r(A)p.r(G)p.r(A)p.r(A)p.r(U)p.r(A)p.r(U)p.r(G)p.r(U)p.r(C)p.r(U)p.r(A)p.r(G)p.d(T)p.d(T)}|RNA2{r(C)p.r(U)p.r(A)p.r(G)p.r(A)p.r(C)p.r(A)p.r(U)p.r(A)p.r(U)p.r(U)p.r(C)p.r(U)p.r(U)p.r(C)p.r(C)p.r(C)p.r(A)p.r(A)p.d(C)p.d(T)}$$$RNA1{StrandType:ss}|RNA2{StrandType:as}$	52.8
RNA1{r(U)p.r(U)p.r(U)p.r(A)p.r(A)p.r(A)p.r(C)p.r(U)p.r(U)p.r(G)p.r(A)p.r(A)p.r(C)p.r(U)p.r(A)p.r(U)p.r(U)p.r(C)p.r(C)p.d(T)p.d(T)}|RNA2{r(G)p.r(G)p.r(A)p.r(A)p.r(U)p.r(A)p.r(G)p.r(U)p.r(U)p.r(C)p.r(A)p.r(A)p.r(G)p.r(U)p.r(U)p.r(U)p.r(A)p.r(A)p.r(A)p.d(A)p.d(G)}$$$RNA1{StrandType:ss}|RNA2{StrandType:as}$	29.9
RNA1{r(U)p.r(U)p.r(U)p.r(C)p.r(A)p.r(U)p.r(G)p.r(U)p.r(G)p.r(G)p.r(U)p.r(C)p.r(A)p.r(U)p.r(U)p.r(G)p.r(C)p.r(U)p.r(G)p.d(T)p.d(T)}|RNA2{r(C)p.r(A)p.r(G)p.r(C)p.r(A)p.r(A)p.r(U)p.r(G)p.r(A)p.r(C)p.r(C)p.r(A)p.r(C)p.r(A)p.r(U)p.r(G)p.r(A)p.r(A)p.r(A)p.d(A)p.d(T)}$$$RNA1{StrandType:ss}|RNA2{StrandType:as}$	39.8
RNA1{r(U)p.r(U)p.r(U)p.r(U)p.r(G)p.r(A)p.r(A)p.r(A)p.r(G)p.r(A)p.r(U)p.r(A)p.r(A)p.r(G)p.r(U)p.r(G)p.r(G)p.r(U)p.r(C)p.d(T)p.d(T)}|RNA2{r(G)p.r(A)p.r(C)p.r(C)p.r(A)p.r(C)p.r(U)p.r(U)p.r(A)p.r(U)p.r(C)p.r(U)p.r(U)p.r(U)p.r(C)p.r(A)p.r(A)p.r(A)p.r(A)p.d(T)p.d(A)}$$$RNA1{StrandType:ss}|RNA2{StrandType:as}$	35.5
